How the values were obtained:
KRAS G12V = KRAS G12V (Homo sapiens, UniProt P01116, G12V); assay: GDP-GTP exchange assay, KRAS G12V (bodipy-GDP/GppNHp, SOS1); type: biochemical; settings: bodipy-loaded KRAS G12V 2.5 nM, 3 hours pre-incubation with inhibitor, SOS1 150 nM, GppNHp 500 uM; read-out: G12V_exchange (KRAS_G12V exchange assay IC50)
Experimental: (§1) The inhibitor potency of the exemplified compounds was determined in a fluorescence based guanine nucleotide exchange assay, which measures the exchange of bodipy-GDP (fluorescently labeled GDP) for GppNHp (Non-hydrolyzable GTP analog) to generate the active state of KRAS in the presence of SOS1 (guanine nucleotide exchange factor). Inhibitors were serially diluted in DMSO and a volume of 0.1 μL was transferred to the wells of a black low volume 384-well plate. Five μL/well volume of bodipy-loaded KRAS G12D or G12V diluted to a final concentration of 2.5 nM in assay buffer (25 mM Hepes pH 7.5, 50 mM NaCl, 10 mM MgCl2 and 0.01% Brij-35) was added to the plate and pre-incubated with inhibitor for 4 hours (G12D) or 3 hours (G12V) at ambient temperature. A cyclic peptide described to selectively bind G12D mutant (Sakamoto et al., BBRC 484.3 (2017), 605-611) or internal compounds with confirmed binding were used as positive controls in the assay plates. The exchange was initiated by the addition of a 5 μL/well volume containing 1 mM GppNHp and 300 nM SOS1 in assay buffer. The 10 μL/well reaction concentration of the bodipy-loaded KRAS G12D or G12V, GppNHp, and SOS1 were 2.5 nM, 500 uM, and 150 nM, respectively.
(§2) Either GraphPad prism or XLfit was used to analyze the data. The IC50 values were derived by fitting the data to a four parameter logistic equation producing a sigmoidal dose-response curve with a variable Hill coefficient. Prism equation: Y=Bottom+(Top−Bottom)/(1+10^((LogIC50-X)*Hill slope)); XLfit equation: Y=(A+((B−A)/(1+((X/C)^D)))) where X is the logarithm of inhibitor concentration and Y is the response.

KRAS G12D = KRAS G12D (Homo sapiens, UniProt P01116, G12D); assay: GDP-GTP exchange assay, KRAS G12D (bodipy-GDP/GppNHp, SOS1); type: biochemical; settings: bodipy-loaded KRAS G12D 2.5 nM, 4 hours pre-incubation with inhibitor, SOS1 150 nM, GppNHp 500 uM; read-out: G12D_exchange (KRAS_G12D exchange assay IC50)
Chain of KRAS G12D (P01116 1-188 isoform P01116-2 G12D): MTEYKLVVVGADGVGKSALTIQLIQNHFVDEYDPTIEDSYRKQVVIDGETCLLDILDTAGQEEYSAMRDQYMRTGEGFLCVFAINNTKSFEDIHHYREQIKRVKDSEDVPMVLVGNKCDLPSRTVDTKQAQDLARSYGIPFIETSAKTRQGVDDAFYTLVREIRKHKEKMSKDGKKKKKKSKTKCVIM
Experimental: as §1, §2

Chain of KRAS G12V (P01116 1-188 isoform P01116-2 G12V): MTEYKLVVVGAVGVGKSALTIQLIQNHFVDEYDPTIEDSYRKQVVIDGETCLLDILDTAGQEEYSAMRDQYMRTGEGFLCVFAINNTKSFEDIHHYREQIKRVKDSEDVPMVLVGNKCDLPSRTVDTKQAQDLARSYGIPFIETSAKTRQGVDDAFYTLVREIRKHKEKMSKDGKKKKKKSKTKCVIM

Compound	IC50 (KRAS G12V)	IC50 (KRAS G12D)
N#CCCc1cc2c3c(cnc2c(F)c1-c1cc(O)cc2ccccc12)N(c1ccccc1)C(=O)CN3[C@@H]1[C@@H]2CN[C@H]1C2 (relative stereo) [Example 17, 3-(1-((endo)-2-Azabicyclo[2.1.1]hexan-5-yl)-7-fluoro-8-(3-hydroxynaphthalen-1-yl)-3-oxo-4-phenyl-1,2,3,4-tetrahydropyrazino[2,3-c]quinolin-9-yl)propanenitrile]	100 to 1000 nM	100 to 1000 nM
C[C@H](Oc1nc2c(F)c(-c3c[nH]c4ccccc34)c(CCC#N)cc2c2c1NC(=O)CN2C1C2CNC1C2)[C@@H]1CCCN1C (single isomer, unassigned) [Example 1b]	100 to 1000 nM	100 to 1000 nM
C[C@H](Oc1nc2c(F)c(-c3cccc(Cl)c3Cl)c(CCC#N)cc2c2c1NC(=O)CN2C1C2CNC1C2)[C@@H]1CCCN1C (single isomer, unassigned) [Example 2a]	100 to 1000 nM	100 to 1000 nM
C[C@H](Oc1nc2c(F)c(-c3cccc(Cl)c3Cl)c(CCC#N)cc2c2c1NC(=O)CN2C1C2CNC1C2)[C@@H]1CCCN1C (single isomer, unassigned) [Example 2c]	100 to 1000 nM	100 to 1000 nM
C[C@H](Oc1nc2c(F)c(-c3cccc4ccc(F)cc34)c(CCC#N)cc2c2c1NC(=O)CN2C1C2CNC1C2)[C@@H]1CCCN1C (single isomer, unassigned) [Example 3b]	100 to 1000 nM	100 to 1000 nM
C[C@H](Oc1nc2c(F)c(-c3cc(O)cc4ccc(F)cc34)c(CCC#N)cc2c2c1NC(=O)CN2C1C2CNC1C2)[C@@H]1CCCN1C (single isomer, unassigned) [Example 4a]	1000 to 5000 nM	1000 to 5000 nM
C[C@H](Oc1nc2c(F)c(-c3cc(O)cc4ccc(F)cc34)c(CCC#N)cc2c2c1NC(=O)CN2C1C2CNC1C2)[C@@H]1CCCN1C (single isomer, unassigned) [Example 4b]	100 to 1000 nM	100 to 1000 nM
CNC(=O)c1ccc(-c2nc3c(F)c(-c4cc(O)cc5ccccc45)c(CCC#N)cc3c3c2NC(=O)CN3C2C3CNC2C3)cn1 (single isomer, unassigned) [Example 5b, 5-(1-((endo)-2-Azabicyclo[2.1.1]hexan-5-yl)-9-(2-cyanoethyl)-7-fluoro-8-(3-hydroxynaphthalen-1-yl)-3-oxo-1,2,3,4-tetrahydropyrazino[2,3-c]quinolin-5-yl)-N-methylpicolinamide]	1000 to 5000 nM	1000 to 5000 nM
N#CCCc1cc2c3c(c(-c4ccc5cccnc5c4)nc2c(F)c1-c1cc(O)cc2ccccc12)NC(=O)CN3C1C2CNC1C2 (single isomer, unassigned) [Example 6b, 3-(1-((endo)-2-Azabicyclo[2.1.1]hexan-5-yl)-7-fluoro-8-(3-hydroxynaphthalen-1-yl)-3-oxo-5-(quinolin-7-yl)-1,2,3,4-tetrahydropyrazino[2,3-c]quinolin-9-yl)propanenitrile]	1000 to 5000 nM	1000 to 5000 nM
Cn1cnc(-c2nc3c(F)c(-c4cc(O)cc5ccccc45)c(CCC#N)cc3c3c2NC(=O)CN3C2C3CNC2C3)c1 (single isomer, unassigned) [Example 7b, 3-(1-((endo)-2-Azabicyclo[2.1.1]hexan-5-yl)-7-fluoro-8-(3-hydroxynaphthalen-1-yl)-5-(1-methyl-1H-imidazol-4-yl)-3-oxo-1,2,3,4-tetrahydropyrazino[2,3-c]quinolin-9-yl)propanenitrile]	1000 to 5000 nM	100 to 1000 nM
N#CCCc1cc2c3c(c(Cc4ccccc4)nc2c(F)c1-c1cc(O)cc2ccccc12)NC(=O)CN3C1C2CNC1C2 (single isomer, unassigned) [Example 8a, 3-(5-Benzyl-1-((endo)-2-azabicyclo[2.1.1]hexan-5-yl)-7-fluoro-8-(3-hydroxynaphthalen-1-yl)-3-oxo-1,2,3,4-tetrahydropyrazino[2,3-c]quinolin-9-yl)propanenitrile]	1000 to 5000 nM	100 to 1000 nM
N#CCCc1cc2c3c(c(Cc4ccccc4)nc2c(F)c1-c1cc(O)cc2ccccc12)NC(=O)CN3C1C2CNC1C2 (single isomer, unassigned) [Example 8b, 3-(5-Benzyl-1-((endo)-2-azabicyclo[2.1.1]hexan-5-yl)-7-fluoro-8-(3-hydroxynaphthalen-1-yl)-3-oxo-1,2,3,4-tetrahydropyrazino[2,3-c]quinolin-9-yl)propanenitrile]	5000 to 10000 nM	5000 to 10000 nM
CNC(=O)c1cccc(-c2nc3c(F)c(-c4cc(O)cc5ccccc45)c(CCC#N)cc3c3c2NC(=O)CN3C2C3CNC2C3)c1 (single isomer, unassigned) [Example 9b, 3-(1-((endo)-2-Azabicyclo[2.1.1]hexan-5-yl)-9-(2-cyanoethyl)-7-fluoro-8-(3-hydroxynaphthalen-1-yl)-3-oxo-1,2,3,4-tetrahydropyrazino[2,3-c]quinolin-5-yl)-N-methylbenzamide]	1000 to 5000 nM	1000 to 5000 nM
N#CCCc1cc2c3c(c(OC[C@@]45CCCN4C[C@H](F)C5)nc2c(F)c1-c1cc(O)cc2ccccc12)NC(=O)CN3C1C2CNC1C2 (single isomer, unassigned) [Example 10c]	100 to 1000 nM	100 to 1000 nM
N#CCCc1cc2c3c(c(OC[C@@]45CCCN4C[C@H](F)C5)nc2c(F)c1-c1cc(O)cc2ccccc12)NC(=O)CN3C1C2CNC1C2 (single isomer, unassigned) [Example 10d]	5000 to 10000 nM	1000 to 5000 nM
C[C@@H](CN(C)C)Oc1nc2c(F)c(-c3cc(O)cc4ccccc34)c(CCC#N)cc2c2c1NC(=O)CN2C1C2CNC1C2 (single isomer, unassigned) [Example 11a]	5000 to 10000 nM	5000 to 10000 nM
C[C@@H](CN(C)C)Oc1nc2c(F)c(-c3cc(O)cc4ccccc34)c(CCC#N)cc2c2c1NC(=O)CN2C1C2CNC1C2 (single isomer, unassigned) [Example 11b]	5000 to 10000 nM	5000 to 10000 nM
C[C@@H](CN(C)C)Oc1nc2c(F)c(-c3cc(O)cc4ccccc34)c(CCC#N)cc2c2c1NC(=O)CN2C1C2CNC1C2 (single isomer, unassigned) [Example 11d]	100 to 1000 nM	100 to 1000 nM
CN1CCC[C@H]1COc1nc2c(F)c(-c3cc(O)cc4ccccc34)c(CCC#N)cc2c2c1CCCN2C1C2CNC1C2 (single isomer, unassigned) [Example 12a]	5000 to 10000 nM	1000 to 5000 nM
CN(C)C1CN(c2nc3c(F)c(-c4cc(O)cc5ccccc45)c(CCC#N)cc3c3c2NC(=O)CN3C2C3CNC2C3)C1 (single isomer, unassigned) [Example 13b, 3-(1-((endo)-2-Azabicyclo[2.1.1]hexan-5-yl)-5-(3-(dimethylamino)azetidin-1-yl)-7-fluoro-8-(3-hydroxynaphthalen-1-yl)-3-oxo-1,2,3,4-tetrahydropyrazino[2,3-c]quinolin-9-yl)propanenitrile]	100 to 1000 nM	100 to 1000 nM
CC1Cc2c(OC[C@@H]3CCCN3C)nc3c(F)c(-c4cc(O)cc5ccccc45)c(CCC#N)cc3c2N(C2C3CNC2C3)C1 (single isomer, unassigned) [Example 14c]	5000 to 10000 nM	1000 to 5000 nM
CC1Cc2c(OC[C@@H]3CCCN3C)nc3c(F)c(-c4cc(O)cc5ccccc45)c(CCC#N)cc3c2N(C2C3CNC2C3)C1 (single isomer, unassigned) [Example 14d]	1000 to 5000 nM	1000 to 5000 nM
C[C@H](Oc1nc2c(F)c(-c3cc(O)cc4ccccc34)c(CCC#N)cc2c2c1CCCN2C1C2CNC1C2)[C@@H]1CCCN1C (single isomer, unassigned) [Example 15a]	1000 to 5000 nM	1000 to 5000 nM
C[C@@H](CN(C)C)Oc1nc2c(F)c(-c3cc(O)cc4ccccc34)c(CCC#N)cc2c2c1CCCN2C1C2CNC1C2 (single isomer, unassigned) [Example 16a]	5000 to 10000 nM	5000 to 10000 nM
N#CCCc1cc2c3c(cnc2c(F)c1-c1cc(O)cc2ccccc12)N(CCC1CCNCC1)C(=O)CN3C1C2CNC1C2 (single isomer, unassigned) [Example 18a, 3-(1-((endo)-2-Azabicyclo[2.1.1]hexan-5-yl)-7-fluoro-8-(3-hydroxynaphthalen-1-yl)-3-oxo-4-(2-(piperidin-4-yl)ethyl)-1,2,3,4-tetrahydropyrazino[2,3-c]quinolin-9-yl)propanenitrile]	100 to 1000 nM	≤ 100 nM
N#CCCc1cc2c3c(cnc2c(F)c1-c1cc(O)cc2ccccc12)N(CC(N)=O)C(=O)CN3C1C2CNC1C2 (single isomer, unassigned) [Example 19a, 2-(1-((endo)-2-Azabicyclo[2.1.1]hexan-5-yl)-9-(2-cyanoethyl)-7-fluoro-8-(3-hydroxynaphthalen-1-yl)-3-oxo-2,3-dihydropyrazino[2,3-c]quinolin-4(1H)-yl)acetamide]	100 to 1000 nM	≤ 100 nM

From patent US12030883B2, “Hetero-tricyclic compounds as inhibitors of KRAS” (Incyte Corporation, priority 2021, dated 2024)
